Molecular target: GST tagged IRAK-4 (Homo sapiens (Human), UniProt Q9NWZ3)
Test: IRAK-4 Kinase Assay (IMAP fluorescence polarization)
Format: biochemical
Details: 100 μM ATP, 30 minutes at 25° C.
Description: The kinase activity of IRAK-4 is determined by its ability to catalyze the phosphorylation of a fluorescent polypeptide substrate. The extent of phosphorylation is measured using the IMAP technology (Molecular Devices) where the phosphorylated fluorescent substrate binds to the large M(III)-based nanoparticles which reduces the rotational speed of the substrate and thus increases its fluorescent polarization (FP).
20 μl reaction mixture contains 10 mM TriHCl, pH 7.2, 0.5 nM GST tagged IRAK-4 (SignalChem), 100 nM fluorescent peptide substrate (RP7030, Molecular Devices), 100 μM ATP, 1 mM DTT, 1 mM MgCl2, and 0.01% Tween 20. The reaction is initiated by the addition of ATP. After incubation for 30 minutes at 25° C., 60 μl of Progressive IMAP Reagent (Molecular Devices) is added to stop the reaction. Change in RP7030's FP is determined by a FP reader (Analyst HT, LH, BioSystems).

Sequence of GST tagged IRAK-4 (Q9NWZ3 whole entry): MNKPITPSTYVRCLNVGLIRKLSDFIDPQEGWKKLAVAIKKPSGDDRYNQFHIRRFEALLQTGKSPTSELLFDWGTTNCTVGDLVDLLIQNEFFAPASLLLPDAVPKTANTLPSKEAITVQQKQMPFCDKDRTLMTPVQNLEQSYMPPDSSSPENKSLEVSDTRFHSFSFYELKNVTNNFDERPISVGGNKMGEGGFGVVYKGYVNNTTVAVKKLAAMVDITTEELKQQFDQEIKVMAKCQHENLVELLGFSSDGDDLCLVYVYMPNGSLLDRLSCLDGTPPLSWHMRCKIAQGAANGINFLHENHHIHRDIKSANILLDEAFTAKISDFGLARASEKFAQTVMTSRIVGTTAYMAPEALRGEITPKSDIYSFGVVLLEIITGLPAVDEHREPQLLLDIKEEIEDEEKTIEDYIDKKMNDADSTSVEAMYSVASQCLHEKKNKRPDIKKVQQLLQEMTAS

Compound | IC50 (μM) [µM] | IC50 [µM]
Cc1ccc(-n2nc(C3CN(Cc4nccs4)C3)cc2NC(=O)c2cnn3cccnc23)cc1 [Example 307, N-{1-(4-methylphenyl)-3-[1-(1,3-thiazol-2-ylmethyl)azetidin-3-yl]-1H-pyrazol-5-yl}pyrazolo[1,5-a]pyrimidine-3-carboxamide] | < 1 | –
Cc1ccc(-n2nc(C3CCN(S(=O)(=O)C4CCCCC4)CC3)cc2NC(=O)c2cnn3cccnc23)cc1 [Example 373, N-{3-[1-(cyclohexylsulfonyl)piperidin-4-yl]-1-(4-methylphenyl)-1H-pyrazol-5-yl}pyrazolo[1,5-a]pyrimidine-3-carboxamide] | < 1 | –
Cc1nn(C)c2nc(-n3nc(C4CCN(S(C)(=O)=O)CC4)cc3NC(=O)c3cnn4cccnc34)ccc12 [Example 175, N-(1-(1,3-dimethyl-1H-pyrazolo[3,4-b]pyridin-6-yl)-3-(1-(methylsulfonyl)piperidin-4-yl)-1H-pyrazol-5-yl)pyrazolo[1,5-a]pyrimidine-3-carboxamide] | < 1 | –
CS(=O)(=O)N1CCC(c2cc(NC(=O)c3cnn4cccnc34)n(-c3ccccn3)n2)CC1 [Example 173, N-(3-(1-(methylsulfonyl)piperidin-4-yl)-1-(pyridin-2-yl)-1H-pyrazol-5-yl)pyrazolo[1,5-a]pyrimidine-3-carboxamide] | < 1 | –
Cc1ccc(-n2nc(C3CCN(C4CCN(C)CC4)CC3)cc2NC(=O)c2cnn3cccnc23)cc1 [Example 205] | > 1 | –
Cc1ccc(-n2nc(C3=CCNCC3)cc2NC(=O)c2cnn3cccnc23)cc1 [Example 138, N-(3-(1,2,3,6-tetrahydropyridin-4-yl)-1-(p-tolyl)-1H-pyrazol-5-yl)pyrazolo[1,5-a]pyrimidine-3-carboxamide] | – | < 0.1
O=C(Nc1cc(C2CCNCC2)nn1-c1ccc(C2CC2)cc1F)c1cnn2cccnc12 [Example 72, N-(1-(4-cyclopropyl-2-fluorophenyl)-3-(piperidin-4-yl)-1H-pyrazol-5-yl)pyrazolo[1,5-a]pyrimidine-3-carboxamide] | – | < 0.1
COc1ccc(-n2nc(C3CCN(C(=O)C4CC4)CC3)cc2NC(=O)c2cnn3cccnc23)cc1 [Example 33, N-(3-(1-(cyclopropanecarbonyl)piperidin-4-yl)-1-(4-methoxyphenyl)-1H-pyrazol-5-yl)pyrazolo[1,5-a]pyrimidine-3-carboxamide] | < 1 | –
Cc1ccc(-n2nc(C3CN(Cc4cccnc4)C3)cc2NC(=O)c2cnn3cccnc23)cc1 [Example 314, N-{1-(4-methylphenyl)-3-[1-(pyridin-3-ylmethyl)azetidin-3-yl]-1H-pyrazol-5-yl}pyrazolo[1,5-a]pyrimidine-3-carboxamide] | – | < 0.1
O=C(Nc1cc(C2CCN(S(=O)(=O)C3CC3)CC2)nn1-c1ccc(OC(F)(F)F)cc1)c1cnn2cccnc12 [Example 27, N-(3-(1-(cyclopropylsulfonyl)piperidin-4-yl)-1-(4-(trifluoromethoxy)phenyl)-1H-pyrazol-5-yl)pyrazolo[1,5-a]pyrimidine-3-carboxamide] | > 1 | –
CS(=O)(=O)N1CCC(c2cc(NC(=O)c3cnn4cccnc34)n(-c3ccc(C4CC4)cc3)n2)CC1 [Example 53, N-(1-(4-cyclopropylphenyl)-3-(1-(methylsulfonyl)piperidin-4-yl)-1H-pyrazol-5-yl)pyrazolo[1,5-a]pyrimidine-3-carboxamide] | – | < 0.1
Cc1cc(F)ccc1-n1nc(C2CCNCC2)cc1NC(=O)c1cnn2cccnc12 [Example 68, N-(1-(4-fluoro-2-methylphenyl)-3-(piperidin-4-yl)-1H-pyrazol-5-yl)pyrazolo[1,5-a]pyrimidine-3-carboxamide] | > 1 | –
Cc1ccc(-n2nc(C3CCN(Cc4ncco4)CC3)cc2NC(=O)c2cnn3cccnc23)cc1 [Example 232, N-{1-(4-methylphenyl)-3-[1-(1,3-oxazol-2-ylmethyl)piperidin-4-yl]-1H-pyrazol-5-yl}pyrazolo[1,5-a]pyrimidine-3-carboxamide] | < 1 | –
Cc1ccc(-n2nc(-c3ccc(NS(C)(=O)=O)cc3)cc2NC(=O)c2cnn3cccnc23)cc1 [Example 103, N-(3-(4-(methylsulfonamido)phenyl)-1-(p-tolyl)-1H-pyrazol-5-yl)pyrazolo[1,5-a]pyrimidine-3-carboxamide] | – | < 0.1
Cc1ccc(-n2nc(C3CCN(Cc4ccccc4)CC3)cc2NC(=O)c2cnn3cccnc23)cc1 [Example 218, N-[3-(1-benzylpiperidin-4-yl)-1-(4-methylphenyl)-1H-pyrazol-5-yl]pyrazolo[1,5-a]pyrimidine-3-carboxamide] | – | > 0.1
O=C(Nc1cc(C2CCNCC2)nn1-c1ccc(C2CC2)cn1)c1cnn2cccnc12 [Example 146, N-(1-(5-cyclopropylpyridin-2-yl)-3-(piperidin-4-yl)-1H-pyrazol-5-yl)pyrazolo[1,5-a]pyrimidine-3-carboxamide] | – | < 0.1
CC(C)N1CCC(c2cc(NC(=O)c3cnn4cccnc34)n(-c3ncc[nH]3)n2)CC1 [Example 187, N-(1-(1H-imidazol-2-yl)-3-(1-isopropylpiperidin-4-yl)-1H-pyrazol-5-yl)pyrazolo[1,5-a]pyrimidine-3-carboxamide] | < 1 | –
CN1CCC(c2cc(NC(=O)c3cnn4cccnc34)n(-c3ccc(Cl)cc3F)n2)CC1 [Example 50, N-(1-(4-chloro-2-fluorophenyl)-3-(1-methylpiperidin-4-yl)-1H-pyrazol-5-yl)pyrazolo[1,5-a]pyrimidine-3-carboxamide] | < 1 | –
O=C(Nc1cc(C2CCNCC2)nn1-c1ccc(F)cc1)c1cnn2cccnc12 [Example 10, N-(1-(4-fluorophenyl)-3-(piperidin-4-yl)-1H-pyrazol-5-yl)pyrazolo[1,5-a]pyrimidine-3-carboxamide] | < 1 | –
O=C(Nc1cc(C2CCNCC2)nn1-c1ccc(Cl)cc1)c1cnn2cccnc12 [Example 9, N-(1-(4-chlorophenyl)-3-(piperidin-4-yl)-1H-pyrazol-5-yl)pyrazolo[1,5-a]pyrimidine-3-carboxamide] | < 1 | –
Cc1ccc(-n2nc(C3CCN(CC4CCOC4)CC3)cc2NC(=O)c2cnn3cccnc23)cc1 (stereo not drawn) [Example 228, N-{1-(4-methylphenyl)-3-[1-(tetrahydrofuran-3-ylmethyl)piperidin-4-yl]-1H-pyrazol-5-yl}pyrazolo[1,5-a]pyrimidine-3-carboxamide] | – | < 0.1
O=C(Nc1cc(C2CCNCC2)nn1-c1c(F)cc(C2CC2)cc1F)c1cnn2cccnc12 [Example 77, N-(1-(4-cyclopropyl-2,6-difluorophenyl)-3-(piperidin-4-yl)-1H-pyrazol-5-yl)pyrazolo[1,5-a]pyrimidine-3-carboxamide] | – | < 0.1
NC(=O)c1ccc(-n2nc(C3CCNCC3)cc2NC(=O)c2cnn3cccnc23)nc1 [Example 160, N-(1-(5-carbamoylpyridin-2-yl)-3-(piperidin-4-yl)-1H-pyrazol-5-yl)pyrazolo[1,5-a]pyrimidine-3-carboxamide] | < 1 | –
CNC(=O)c1ccc(-c2cc(NC(=O)c3cnn4cccnc34)n(-c3ccc(C)cc3)n2)cc1 [Example 348, N-{3-[4-(methylcarbamoyl)phenyl]-1-(4-methylphenyl)-1H-pyrazol-5-yl}pyrazolo[1,5-a]pyrimidine-3-carboxamide] | – | < 0.1

Reference: patent publication US9169260B2 (MERCK SHARP & DOHME CORP., priority 2011, dated 2015)
